From PMC4671658, “Release of 50 new, drug-like compounds and their computational target predictions for open source anti-tubercular drug discovery” (PLoS ONE, 2015)
Converted amounts (≈) assume the structure as drawn.

Test system: clinical isolate of M.tuberculosis resistant to isoniazid

`O=C(NCc1ccco1)N1CCN(Cc2ccc(Cl)s2)CC1` [TCMDC-143653] was tested, and the “MIC against clinical isolate resistant to isoniazid” value was 1.6 µM (≈ 0.544 µg/mL).
